In the NIST ThermoML archive (doi:10.1021/je700321s):

Test: xn = mol fraction of the nth substance listed
Conditions: Liquid, Vibrating tube method

CC(C)O [propan-2-ol] + O=C=O
Conditions | mass density [kg/m3]
323.05 K, 7910 kPa, x2 = 0.6086 | 781.7
323.05 K, 8002 kPa, x2 = 0.139 | 777.6
323.05 K, 8009 kPa, x2 = 0.6086 | 782.2
323.05 K, 8208 kPa, x2 = 0.6086 | 783.1
323.05 K, 8404 kPa, x2 = 0.6086 | 784.1
323.05 K, 8527 kPa, x2 = 0.139 | 778.3
323.05 K, 8528 kPa, x2 = 0.9715 | 303.9
323.05 K, 8607 kPa, x2 = 0.6086 | 785
323.05 K, 8800 kPa, x2 = 0.6086 | 785.8
323.05 K, 9004 kPa, x2 = 0.6086 | 786.7
323.05 K, 9031 kPa, x2 = 0.9715 | 381.9
323.05 K, 9033 kPa, x2 = 0.139 | 778.8
323.05 K, 9107 kPa, x2 = 0.9492 | 526.2
323.05 K, 9301 kPa, x2 = 0.6086 | 788
323.05 K, 9400 kPa, x2 = 0.9492 | 575.3
323.05 K, 9501 kPa, x2 = 0.6086 | 788.9
323.05 K, 9519 kPa, x2 = 0.139 | 779.4
323.05 K, 9535 kPa, x2 = 0.9715 | 467.3
323.05 K, 9702 kPa, x2 = 0.6086 | 789.8
323.05 K, 9710 kPa, x2 = 0.9492 | 607
323.05 K, 9805 kPa, x2 = 0.6086 | 790.2
323.05 K, 10015 kPa, x2 = 0.9492 | 628.2
323.05 K, 10046 kPa, x2 = 0.9715 | 540
323.05 K, 10301 kPa, x2 = 0.9492 | 644.3
323.05 K, 10501 kPa, x2 = 0.9715 | 577.6
323.05 K, 10600 kPa, x2 = 0.9492 | 658.2
323.05 K, 10904 kPa, x2 = 0.9492 | 670.3
323.05 K, 11011 kPa, x2 = 0.9715 | 612.9
323.05 K, 11211 kPa, x2 = 0.9492 | 681.1
323.05 K, 11508 kPa, x2 = 0.9492 | 689.9
323.05 K, 11512 kPa, x2 = 0.9715 | 638.9
323.05 K, 11807 kPa, x2 = 0.9492 | 698.3
323.05 K, 12028 kPa, x2 = 0.9715 | 660.4
323.05 K, 12106 kPa, x2 = 0.9492 | 705.9
323.05 K, 12404 kPa, x2 = 0.9492 | 712.6
323.05 K, 12516 kPa, x2 = 0.9715 | 677
323.05 K, 12703 kPa, x2 = 0.9492 | 719.2
323.05 K, 13006 kPa, x2 = 0.9492 | 725.5
323.05 K, 13014 kPa, x2 = 0.9715 | 691.5
323.05 K, 13309 kPa, x2 = 0.9492 | 731.4
323.05 K, 13558 kPa, x2 = 0.9715 | 705.3
323.05 K, 13608 kPa, x2 = 0.9492 | 736.7
323.05 K, 13907 kPa, x2 = 0.9492 | 742
323.05 K, 14003 kPa, x2 = 0.9715 | 715.4
323.05 K, 14210 kPa, x2 = 0.9492 | 746.8
323.05 K, 14504 kPa, x2 = 0.9492 | 751.1
323.05 K, 14516 kPa, x2 = 0.9715 | 725.9
323.05 K, 14804 kPa, x2 = 0.9492 | 755.1
323.05 K, 15024 kPa, x2 = 0.9715 | 735.4
323.05 K, 15506 kPa, x2 = 0.9715 | 743.6
323.06 K, 8724 kPa, x2 = 0.7943 | 745.3
323.06 K, 8802 kPa, x2 = 0.7943 | 746.6
323.06 K, 8905 kPa, x2 = 0.7943 | 747.9
323.06 K, 9005 kPa, x2 = 0.7943 | 749.2
323.06 K, 9204 kPa, x2 = 0.7943 | 751.6
323.06 K, 9410 kPa, x2 = 0.7943 | 753.9
323.06 K, 9606 kPa, x2 = 0.7943 | 756.2
323.06 K, 9792 kPa, x2 = 0.7943 | 758.2
323.06 K, 10001 kPa, x2 = 0.7943 | 760.2
323.06 K, 10310 kPa, x2 = 0.7943 | 763.1
323.07 K, 4004 kPa, x2 = 0.2003 | 775.4
323.07 K, 4307 kPa, x2 = 0.2003 | 775.8
323.07 K, 4497 kPa, x2 = 0.2003 | 776.1
323.07 K, 4802 kPa, x2 = 0.2003 | 776.6
323.07 K, 5014 kPa, x2 = 0.2003 | 776.9
323.07 K, 5510 kPa, x2 = 0.2003 | 777.5
323.07 K, 6029 kPa, x2 = 0.2003 | 778.3
323.07 K, 6513 kPa, x2 = 0.2003 | 779
323.07 K, 7000 kPa, x2 = 0.2003 | 779.7
323.07 K, 7519 kPa, x2 = 0.2003 | 780.5
323.07 K, 8013 kPa, x2 = 0.2003 | 781.1
323.07 K, 8543 kPa, x2 = 0.2003 | 781.8
323.07 K, 9139 kPa, x2 = 0.2003 | 782.5
323.07 K, 9497 kPa, x2 = 0.2003 | 783
323.07 K, 10068 kPa, x2 = 0.2003 | 783.8
332.97 K, 9739 kPa, x2 = 0.7943 | 686.8
332.97 K, 9804 kPa, x2 = 0.7943 | 689.2
332.97 K, 9901 kPa, x2 = 0.7943 | 691.4
332.97 K, 10001 kPa, x2 = 0.7943 | 693.5
332.97 K, 10101 kPa, x2 = 0.7943 | 695.6
332.97 K, 10201 kPa, x2 = 0.7943 | 697.8
332.97 K, 10302 kPa, x2 = 0.7943 | 699.9
332.97 K, 10404 kPa, x2 = 0.7943 | 701.7
332.97 K, 10507 kPa, x2 = 0.7943 | 703.7
332.97 K, 10606 kPa, x2 = 0.7943 | 705.4
332.97 K, 10808 kPa, x2 = 0.7943 | 708.9
332.97 K, 11007 kPa, x2 = 0.7943 | 712
332.97 K, 11204 kPa, x2 = 0.7943 | 715
332.97 K, 11404 kPa, x2 = 0.7943 | 717.8
332.97 K, 11607 kPa, x2 = 0.7943 | 720.5
332.97 K, 11805 kPa, x2 = 0.7943 | 722.9
332.97 K, 12004 kPa, x2 = 0.7943 | 725.3
332.99 K, 2861 kPa, x2 = 0.139 | 759.8
332.99 K, 3000 kPa, x2 = 0.139 | 760
332.99 K, 3297 kPa, x2 = 0.139 | 760.4
332.99 K, 3495 kPa, x2 = 0.139 | 760.7
332.99 K, 4008 kPa, x2 = 0.139 | 761.5
332.99 K, 4509 kPa, x2 = 0.139 | 762.2
332.99 K, 5030 kPa, x2 = 0.139 | 762.8
332.99 K, 6502 kPa, x2 = 0.139 | 764.9
332.99 K, 7005 kPa, x2 = 0.139 | 765.6
332.99 K, 7501 kPa, x2 = 0.139 | 766.3
332.99 K, 8010 kPa, x2 = 0.139 | 766.9
332.99 K, 8521 kPa, x2 = 0.139 | 767.6
332.99 K, 9040 kPa, x2 = 0.139 | 768.3
332.99 K, 9511 kPa, x2 = 0.139 | 768.8
332.99 K, 9974 kPa, x2 = 0.139 | 769.5
332.99 K, 10561 kPa, x2 = 0.9492 | 502.4
332.99 K, 10601 kPa, x2 = 0.9492 | 506.6
332.99 K, 10709 kPa, x2 = 0.9492 | 517.4
332.99 K, 10810 kPa, x2 = 0.9492 | 526.9
332.99 K, 10910 kPa, x2 = 0.9492 | 536.2
332.99 K, 11209 kPa, x2 = 0.9492 | 560.9
332.99 K, 11503 kPa, x2 = 0.9492 | 580
332.99 K, 11803 kPa, x2 = 0.9492 | 596
332.99 K, 12102 kPa, x2 = 0.9492 | 611.4
332.99 K, 12404 kPa, x2 = 0.9492 | 624.7
332.99 K, 12705 kPa, x2 = 0.9492 | 635.9
332.99 K, 13010 kPa, x2 = 0.9492 | 645.6
332.99 K, 13302 kPa, x2 = 0.9492 | 654.5
332.99 K, 13603 kPa, x2 = 0.9492 | 663.6
332.99 K, 13906 kPa, x2 = 0.9492 | 671.7
332.99 K, 14213 kPa, x2 = 0.9492 | 678.9
332.99 K, 14513 kPa, x2 = 0.9492 | 684.7
333.02 K, 7301 kPa, x2 = 0.4248 | 770.1
333.02 K, 7408 kPa, x2 = 0.4248 | 770.5
333.02 K, 7506 kPa, x2 = 0.4248 | 770.6
333.02 K, 7613 kPa, x2 = 0.4248 | 771
333.02 K, 7806 kPa, x2 = 0.4248 | 771.4
333.02 K, 8005 kPa, x2 = 0.4248 | 772
333.02 K, 8209 kPa, x2 = 0.4248 | 772.6
333.02 K, 8226 kPa, x2 = 0.6086 | 753.6
